Results from US12391683B2, “Therapeutic compounds and methods” (Actio Biosciences, Inc., priority 2022, dated 2025).

Target: T1, TRPM5 channels (Homo sapiens, UniProt Q9NZQ8)
T1 construct: expressed in transfected cells; host or cells: CHO
T1 sequence (Q9NZQ8 1-1165): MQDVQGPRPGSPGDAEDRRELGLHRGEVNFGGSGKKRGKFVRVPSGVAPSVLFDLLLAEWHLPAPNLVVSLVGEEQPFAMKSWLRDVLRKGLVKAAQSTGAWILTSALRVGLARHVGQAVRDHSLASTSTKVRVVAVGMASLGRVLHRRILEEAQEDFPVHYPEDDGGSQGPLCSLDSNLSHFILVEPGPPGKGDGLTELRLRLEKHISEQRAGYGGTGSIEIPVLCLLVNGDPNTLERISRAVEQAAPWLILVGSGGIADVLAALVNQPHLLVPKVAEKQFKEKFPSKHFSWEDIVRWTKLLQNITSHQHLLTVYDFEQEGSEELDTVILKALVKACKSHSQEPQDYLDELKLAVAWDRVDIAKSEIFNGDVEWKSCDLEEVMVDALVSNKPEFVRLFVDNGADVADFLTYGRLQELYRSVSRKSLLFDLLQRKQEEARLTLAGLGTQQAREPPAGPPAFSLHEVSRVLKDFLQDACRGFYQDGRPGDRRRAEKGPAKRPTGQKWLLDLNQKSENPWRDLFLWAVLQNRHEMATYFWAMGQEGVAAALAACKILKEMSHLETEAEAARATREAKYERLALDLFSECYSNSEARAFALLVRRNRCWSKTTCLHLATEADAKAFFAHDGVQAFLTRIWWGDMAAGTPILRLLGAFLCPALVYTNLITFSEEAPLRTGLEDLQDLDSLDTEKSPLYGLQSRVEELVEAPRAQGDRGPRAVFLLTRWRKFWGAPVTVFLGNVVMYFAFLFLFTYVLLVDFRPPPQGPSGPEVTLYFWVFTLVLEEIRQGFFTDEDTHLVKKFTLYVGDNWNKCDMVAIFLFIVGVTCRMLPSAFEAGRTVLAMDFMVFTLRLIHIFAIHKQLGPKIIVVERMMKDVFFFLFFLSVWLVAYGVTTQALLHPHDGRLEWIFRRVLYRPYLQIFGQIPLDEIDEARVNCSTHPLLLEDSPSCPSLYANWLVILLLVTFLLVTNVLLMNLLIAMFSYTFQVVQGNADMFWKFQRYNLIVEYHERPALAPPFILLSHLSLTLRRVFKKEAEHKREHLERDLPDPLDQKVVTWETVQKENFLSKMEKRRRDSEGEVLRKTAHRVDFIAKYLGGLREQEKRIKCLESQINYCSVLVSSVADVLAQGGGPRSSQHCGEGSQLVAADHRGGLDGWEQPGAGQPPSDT
Experiment: TRP Family FLIPR Assay, TRPM5
Type: cell-based
Details: CHO cells
Experimental: The compound of Example 5 was tested for selectivity against a panel of Human TRP family ion channels in a TRP Family FLIPR Assay as described below. • 1. TRPC3 channels (human TRPC3 variant 1 gene, expressed in HEK293 cells). • 2. TRPC4 channels (human TRPC4 gene, expressed in HEK293 cells). • 3. TRPC5 channels (human TRPC5 gene, expressed in HEK293 cells). • 4. TRPC6 channels (human TRPC6 gene, expressed in HEK293 cells). • 5. TRPM2 channels (human TRPM2 gene, transiently expressed in HEK293 cells). • 6. TRPM3 channels (human TRPM3 gene, transiently expressed in HEK293 cells). • 7. TRPM4 channels (human TRPM4 gene, expressed in CHO cells). • 8. […]
Data acquisition was performed via the FLIPR Control software supplied with the FLIPR System (MDS-AT) and data was analyzed using Microsoft Excel (Microsoft Corp., Redmond, WA) or GraphPad Prism. […]
[formula] where Base is the response at low concentrations of test article, Max is the maximum response at high concentrations, xhalf the EC50, or IC50, the concentration of test article producing either half-maximal activation or inhibition, and rate is the Hill coefficient. […] No assumptions about the fit parameters was made; the fit parameters were determined by the algorithm.
The effect of each test article was evaluated at eight (8) concentrations: 0.003, 0.01, 0.03, 0.1, 0.3, 1, 3 and 10 μM, n≤4 wells/concentration). […]

Q: What does the source list for CC(C)(O)c1cnc(N2C[C@@]3(CC[C@@H](F)[C@](C)(Cn4cnc5ccc(C#N)cc54)C3)OC2=O)cn1 (single isomer, unassigned) [Example 5]?
A: EC50 (agonist mode, vs EMAX of Mg-ATP 33.3 μM, read-out: EC50 hTRPM5): > 10 µM; IC50 (antagonist mode, activated with Mg-ATP 75 μM, 0.003-10 μM, read-out: IC50 hTRPM5): > 10 µM
